Laboratory results published in ChEMBL document CHEMBL5252541, “Repurposing antipsychotic drugs into antifungal agents: Synergistic combinations of azoles and bromperidol derivatives in the treatment of various fungal infections” (Eur J Med Chem, 2017).
≈ marks a conversion by molar mass, not a printed value.

What was measured:
[1] = Cytotoxicity against mouse J774.A1 cells assessed as cell survival by XTT assay; assay type: toxicity, cell-based; conditions: read-out: Activity
[2] = Cytotoxicity against mouse J774.A1 cells assessed as cell survival at 16 microg/ml by XTT assay; assay type: toxicity, cell-based; conditions: at 16 µg/mL, read-out: Activity
Candida albicans [3] = experiment: Synergistic antifungal activity against Candida albicans ATCC MYA-1003 assessed as posaconazole MIC measured after 48 hrs by checkboard based microplate reader analysis; assay type: functional
HEK293 [4] = experiment: Cytotoxicity against HEK293 cells assessed as cell survival at 8 microg/ml by XTT assay; assay type: toxicity, cell-based; conditions: human, dose 8 µg/ml
Nakaseomyces glabratus [5] = experiment: Antifungal activity against Candida glabrata ATCC 2001 measured after 48 hrs by broth microdilution analysis; assay type: functional
Aspergillus terreus [6] = experiment: Antifungal activity against Aspergillus terreus ATCC MYA-3633 measured after 48 hrs by broth microdilution analysis; assay type: functional
Aspergillus terreus [7] = experiment: Synergistic antifungal activity against Aspergillus terreus ATCC MYA-3633 assessed as posaconazole MIC measured after 48 hrs by checkboard based microplate reader analysis; assay type: functional
Candida albicans [8] = experiment: Antifungal activity against Candida albicans ATCC 64124 measured after 48 hrs by broth microdilution analysis; assay type: functional
Candida albicans [9] = experiment: Synergistic antifungal activity against Candida albicans ATCC 90819 assessed as posaconazole MIC measured after 48 hrs by checkboard based microplate reader analysis; assay type: functional
[10] = Cytotoxicity against mouse J774.A1 cells assessed as cell survival at 8 microg/ml by XTT assay; assay type: toxicity, cell-based; conditions: J774.A1 cells, at 8 µg/mL, read-out: Activity
Candida albicans [11] = experiment: Antifungal activity against Candida albicans ATCC 90819 measured after 48 hrs by broth microdilution analysis; assay type: functional
Candida albicans [12] = experiment: Synergistic antifungal activity against Candida albicans ATCC MYA-2310 assessed as posaconazole MIC measured after 48 hrs by checkboard based microplate reader analysis; assay type: functional
Candida albicans [13] = experiment: Antifungal activity against Candida albicans ATCC MYA-1237 measured after 48 hrs by broth microdilution analysis; assay type: functional
[14] = Cytotoxicity against HEK293 cells assessed as cell survival at 16 microg/ml by XTT assay; assay type: toxicity, cell-based; conditions: human, at 16 µg/mL, read-out: Activity
BEAS-2B = experiment: Cytotoxicity against human BEAS-2B cells assessed as cell survival up to 4 microg/ml by XTT assay; assay type: toxicity, cell-based; conditions: dose < 4 µg/ml
Candida albicans [15] = experiment: Antifungal activity against Candida albicans ATCC MYA-1003 measured after 48 hrs by broth microdilution analysis; assay type: functional
Candida albicans [16] = experiment: Additive antifungal activity against Candida albicans ATCC MYA-1237 assessed as fractional inhibitory concentration index measured for 72 hrs in presence of posaconazole; assay type: functional
[17] = Cytotoxicity against human BEAS-2B cells assessed as cell survival by XTT assay; assay type: toxicity, cell-based; conditions: read-out: Activity
Candida albicans [18] = experiment: Synergistic antifungal activity against Candida albicans ATCC MYA-1237 assessed as posaconazole MIC measured after 48 hrs by checkboard based microplate reader analysis; assay type: functional
Candida albicans [19] = experiment: Synergistic antifungal activity against Candida albicans ATCC 64124 assessed as posaconazole MIC measured after 48 hrs by checkboard based microplate reader analysis; assay type: functional
Candida albicans [20] = experiment: Antifungal activity against Candida albicans ATCC 10231 measured after 48 hrs by broth microdilution analysis; assay type: functional
Candida albicans [21] = experiment: Synergistic antifungal activity against Candida albicans ATCC 10231 assessed as posaconazole MIC measured after 48 hrs by checkboard based microplate reader analysis; assay type: functional
Candida albicans [22] = experiment: Synergistic antifungal activity against Candida albicans ATCC MYA-2876 assessed as posaconazole MIC measured after 48 hrs by checkboard based microplate reader analysis; assay type: functional
J774.A1 = experiment: Cytotoxicity against mouse J774.A1 cells assessed as cell survival up to 4 microg/ml by XTT assay; assay type: toxicity, cell-based; conditions: dose < 4 µg/ml
[23] = Cytotoxicity against HEK293 cells assessed as cell survival by XTT assay; assay type: toxicity, cell-based; conditions: human, read-out: Activity
HEK293 [24] = experiment: Cytotoxicity against HEK293 cells assessed as cell survival up to 4 microg/ml by XTT assay; assay type: toxicity, cell-based; conditions: human, dose < 4 µg/ml
Nakaseomyces glabratus [25] = experiment: Synergistic antifungal activity against Candida glabrata ATCC 2001 assessed as posaconazole MIC measured after 48 hrs by checkboard based microplate reader analysis; assay type: functional
Candida albicans [26] = experiment: Antifungal activity against Candida albicans ATCC MYA-2876 measured after 48 hrs by broth microdilution analysis; assay type: functional

CC[C@@H]([C@H](C)O)n1ncn(-c2ccc(N3CCN(c4ccc(OC[C@@H]5CO[C@@](Cn6cncn6)(c6ccc(F)cc6F)C5)cc4)CC3)cc2)c1=O [POSACONAZOLE]
viability [1]: > 100%
viability at 16 microg/ml [2]: 46%
MIC (Candida albicans [3]): 0.5 µg/mL
Activity (HEK293 [4]): Non-Toxic
MIC (Nakaseomyces glabratus [5]): > 32 µg/mL
MIC (Aspergillus terreus [6]): 0.25 µg/mL (≈ 0.357 µM)
MIC (Aspergillus terreus [7]): 0.25 µg/mL
MIC (Candida albicans [8]): > 32 µg/mL
MIC (Candida albicans [9]): 0.25 µg/mL
viability at 8 microg/ml [10]: 80%
MIC (Candida albicans [11]): > 32 µg/mL
MIC (Candida albicans [12]): 0.5 µg/mL
MIC (Candida albicans [13]): > 32 µg/mL
viability at 16 microg/ml [14]: 45%
Activity (BEAS-2B): Non-Toxic
MIC (Candida albicans [15]): > 32 µg/mL
fractional inhibitory concentration index (FICI) (Candida albicans [16]): 2
viability [17]: > 100%
MIC (Candida albicans [18]): 0.5 µg/mL
MIC (Candida albicans [19]): 2 µg/mL
MIC (Candida albicans [20]): 1 µg/mL (≈ 1.43 µM)
MIC (Candida albicans [21]): 0.125 µg/mL
MIC (Candida albicans [22]): > 32 µg/mL
Activity (J774.A1): Non-Toxic
viability [23]: > 100%
Activity (HEK293 [24]): Non-Toxic
MIC (Nakaseomyces glabratus [25]): 0.25 µg/mL
MIC (Candida albicans [26]): > 32 µg/mL
